Test results published in ChEMBL document CHEMBL6087453, “Minimalist Natural ORPphilin Macarangin B Delineates OSBP Biological Function” (J Med Chem, 2025).

What was measured:
[1] = in vitro; details: human, HeLa cells
Description: Cytotoxicity against human HeLa cells assessed as inhibition of cell proliferation incubated for 72 hrs by celltiter-glo assay

[2] = system: MDA-MB-231; experiment: cells; details: Homo sapiens, MDA-MB-231, 72 h
Description: Cytotoxicity against human MDA-MB-231 cells assessed as inhibition of cell proliferation incubated for 72 hrs by celltiter-glo assay

[3] = system: MCF7; experiment: cells; details: Homo sapiens, MCF7, 72 h
Description: Cytotoxicity against human MCF7 cells assessed as inhibition of cell proliferation incubated for 72 hrs by celltiter-glo assay

[4] = in vitro; details: human, MRC5 cells
Description: Cytotoxicity against human MRC5 cells assessed as inhibition of cell proliferation incubated for 72 hrs by celltiter-glo assay

[5] = in vitro; details: human, RPE-1 cells (TERT-RPE1)
Description: Cytotoxicity against human RPE-1 cells assessed as inhibition of cell proliferation incubated for 72 hrs by celltiter-glo assay

[6] = system: PC-3; experiment: cells; details: Homo sapiens, PC-3, 72 h
Description: Cytotoxicity against human PC-3 cells assessed as inhibition of cell proliferation incubated for 72 hrs by celltiter-glo assay

[7] = biological target: T1, Oxysterol-binding protein 1 (Homo sapiens, UniProt P22059); experiment: Binding affinity to OSBP (unknown origin) ORD domain assessed as dissociation constant by FRET assay
T1 sequence (P22059 whole entry): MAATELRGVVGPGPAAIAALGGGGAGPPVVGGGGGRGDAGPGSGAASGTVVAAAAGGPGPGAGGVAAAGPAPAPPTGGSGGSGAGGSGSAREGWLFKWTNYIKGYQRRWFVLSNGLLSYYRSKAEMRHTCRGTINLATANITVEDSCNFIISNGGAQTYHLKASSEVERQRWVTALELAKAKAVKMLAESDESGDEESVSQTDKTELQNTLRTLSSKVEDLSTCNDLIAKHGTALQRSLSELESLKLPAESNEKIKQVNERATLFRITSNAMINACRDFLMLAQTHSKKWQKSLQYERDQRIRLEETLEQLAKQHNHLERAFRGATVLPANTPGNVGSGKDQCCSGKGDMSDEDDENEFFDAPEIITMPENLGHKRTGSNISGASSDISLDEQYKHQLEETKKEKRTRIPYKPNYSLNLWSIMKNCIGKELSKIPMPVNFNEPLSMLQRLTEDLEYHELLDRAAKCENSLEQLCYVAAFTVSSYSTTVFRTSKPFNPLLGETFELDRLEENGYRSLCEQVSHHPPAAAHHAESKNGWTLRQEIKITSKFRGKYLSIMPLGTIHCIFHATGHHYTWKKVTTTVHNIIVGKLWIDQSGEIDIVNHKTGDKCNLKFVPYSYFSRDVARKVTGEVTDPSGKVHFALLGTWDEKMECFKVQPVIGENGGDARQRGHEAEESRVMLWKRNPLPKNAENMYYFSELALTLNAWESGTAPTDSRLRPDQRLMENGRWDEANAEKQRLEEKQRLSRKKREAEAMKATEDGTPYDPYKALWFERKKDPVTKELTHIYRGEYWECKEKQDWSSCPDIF

[8] = system: A549; experiment: cells; details: Homo sapiens, A549, 72 h
Description: Cytotoxicity against human A549 cells assessed as inhibition of cell proliferation incubated for 72 hrs by celltiter-glo assay

- IC50 at 72 h [1]: 100 nM
- IC50 [2]: 300 nM
- IC50 [3]: 1000 nM
- IC50 at 72 h [4]: 300 nM
- IC50 at 72 h [5]: 400 nM
- IC50 [6]: 300 nM
- Kd [7]: 22 nM
- IC50 [8]: 500 nM
SMILES: CC(C)=CCc1c(O)cc(/C=C/c2cc(O)c3c(c2)C[C@@H]2C(C)(C)[C@H](O)CC[C@@]2(C)O3)cc1O [SCHWEINFURTHIN G]
